{"source": "paper PMC12549899", "about": "(Nature Communications, 2025)", "target": "T1, DrOTOP1 I565W (Danio rerio, UniProt Q7ZWK8, I565W)", "T1 construct": "A previously generated codon-optimized full-length DrOTOP1[8]; (UniProt: Q7ZWK8) construct; expressed in transfected cells; host or cells: HEK-293 (CRL-1573, ATCC)", "T1 sequence (Q7ZWK8 1-586 I565W)": "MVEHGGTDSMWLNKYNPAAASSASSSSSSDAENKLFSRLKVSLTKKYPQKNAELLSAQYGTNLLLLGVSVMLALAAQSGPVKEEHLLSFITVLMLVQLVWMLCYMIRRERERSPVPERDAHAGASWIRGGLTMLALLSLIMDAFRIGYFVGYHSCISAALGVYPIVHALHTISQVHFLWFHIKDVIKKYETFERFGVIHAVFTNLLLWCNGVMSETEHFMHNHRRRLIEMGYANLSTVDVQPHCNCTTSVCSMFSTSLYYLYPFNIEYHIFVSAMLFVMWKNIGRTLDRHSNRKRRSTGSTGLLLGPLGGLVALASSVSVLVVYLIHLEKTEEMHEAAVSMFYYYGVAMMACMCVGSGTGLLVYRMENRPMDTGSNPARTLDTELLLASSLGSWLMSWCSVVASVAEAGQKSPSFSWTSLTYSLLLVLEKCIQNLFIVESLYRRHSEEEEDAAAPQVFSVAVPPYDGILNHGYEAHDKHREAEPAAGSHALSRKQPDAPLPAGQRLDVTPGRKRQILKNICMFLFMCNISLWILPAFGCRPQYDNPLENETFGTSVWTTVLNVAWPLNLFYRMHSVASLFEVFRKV", "assay": "Whole-cell patch-clamp, inhibition of acid-evoked currents, DrOTOP1 I565W (C-domain pocket)", "assay_type": "cell-based, zebrafish (Danio rerio)", "set-up": "key to inhibition of acid-evoked current, single cells: % inhibition = ((I2peak - I1)/I2peak)*100", "conditions": "for LogAbsoluteIC50: concentration in uM", "source_text": "To experimentally verify whether C11 and C2.2 bind in the C-domain pocket as predicted, we used their docked poses to guide mutagenesis. The predicted interactions for C11 and C2.2 include π-stacking with F342 and Y422, potential H-bonding with Q542, N568, and R572 (Fig. 2J, K and Supplementary Fig. 5A), and hydrophobic packing. We generated single-residue mutants of these and other residues in DrOTOP1 that were expected to disrupt specific molecular interactions or to introduce a bulky tryptophan residue (W) to produce steric hindrance.\nHEK-293 cells (CRL-1573, ATCC) were cultured in DMEM (Thermofisher 11995073) containing 10% fetal bovine serum (Life Technology 16000044) and Penicillin-Streptomycin (100 I.U./mL) and (100 µg/mL), respectively. Cells were transfected with WT DrOTOP1 or mutant DrOTOP1 channels in 35 mm petri dishes, with ~ 500 ng DNA and 2 μL TransIT-LT1 transfection reagent (Mirus Bio Corporation, Cat # MIR2300) following the manufacturer’s protocol. All constructs were subcloned into a pcDNA3.1 vector that adds an N-terminal fusion tag consisting of an octahistidine tag followed by eGFP, a Gly-Thr-Gly-Thr linker and a 3C protease cleavage site ([…]) followed by WT DrOTOP1, WT mOTOP1, WT hOTOP1, or mutated DrOTOP1. Point mutations were generated via In-Fusion Cloning (Takara) using single-stranded DNA primers generated through IDT and sequence confirmed by Sanger sequencing (GeneWiz).\nWhole-cell patch-clamp recording was performed as previously described[6],[22],[25]. Recordings were made with an Axopatch 200B amplifier, digitized with a Digidata 1322a 16-bit data acquisition system, acquired with pClamp 8.2 and analyzed with Clampfit 10 (Molecular Devices). Recordings were sampled at 5 kHz and filtered at 1 kHz. Patch Pipettes with resistance of […] were fabricated from borosilicate glass, and only recordings with a giga-Ohm seal were used in analysis. Membrane potential was held at −80 mV for the duration of recordings. At the beginning of recordings and between, cells were washed with Tyrode’s solution (see below). Once a giga-Ohm seal was reached, cells were lifted and placed in front of microcapillary tubes controlled by a Fast-Step perfusion system (Warner Instruments) so that extracellular solutions could be rapidly exchanged during each experiment.\nStandard Tyrode’s solution consisted of 145 mM NaCl, 5 mM KCl, MgCl2, 2 mM CaCl2, 20 mM D-Glucose, and 10 mM HEPES (for pH 7.4). All other extracellular patch-clamp solutions contained 160 mM NMDG-Cl, 2 mM CaCl2, and the following buffers: 10 mM HEPES (for pH 7.4), 10 mM MES (for pH 6.5-5.5), 10 mM CHES for pH 10, and 10 mM HomoPIPES for (pH 5.0). pH adjusted with HCl. When adding compounds to extracellular solutions, the concentration of DMSO in solution was never higher than 0.3%. The pipette contained intracellular solution made up of 120 mM Cs-aspartate, 15 mM CsCl, 2 mM Mg-ATP, 5 mM EGTA, 2.4 mM CaCl2 (100 nM free Ca^2+), and 10 mM HEPES with a pH of 7.3. All extracellular solution osmolarity was adjusted to 300 mOsm and intracellular osmolarity was adjusted to 290 mOsm.\nAll data are presented as mean ± SEM unless otherwise noted, and each data point represents an independent replicant. Inhibition of compounds was quantified as ((I2peak-I1)/(I2peak))*100, where I1 is the current immediately before wash-off and I2peak is the maximum recovered current (Supplementary Fig. 2). Hill coefficients were determined by the following equation: Y = Bmax*X^h/(Kd^h + X^h). Absolute IC50 was determined by the following equation: Fifty = (Top + Baseline)/2 Y = Bottom + (Top-Bottom)/(1 + ((Top-Bottom)/(Fifty-Bottom) − 1)*(AbsoluteIC50/X)^HillSlope). pH50 curves (Fig. 6G inset) were determined using the following equation: Y = Bottom + (Top-Bottom)/(1 + (EC/X)^HillSlope) where EC = EC50 control. Graphs with electrophysiological data were made in Graphpad Prism 10 (Graphpad Software Inc). […]", "note": "Where “and” joins values, the source holds several entries; their conditions need not be identical. Equal entries are not always repeated. Where two headings read alike, the source gives them in different places.", "data": [{"smiles": "C=C(C)COc1ccccc1NC(=O)c1nc[nH]c1C", "note": "[C2.2]", "values": [{"measurement": "Hill coefficient", "result": 1.22}, {"measurement": "Shift of IC50 compared with WT", "result": "~ 10 fold"}, {"measurement": "inhibition of acid-evoked current, single cells", "setting": "C2.2 3 uM, Supp. Fig 5G", "result": "6.531 and 5.9632 and 6.805 and 3.704"}, {"measurement": "inhibition at 3 µM", "setting": "C2.2 3 uM, Supp. Fig 5G, read-out: inhibition of acid-evoked current, single cells", "result": 5.54, "unit": "%"}, {"measurement": "inhibition of acid-evoked current, single cells", "setting": "C2.2 10 uM, Supp. Fig 5G", "result": "8.1748 and 9.4295 and 12.133 and 10.612"}, {"measurement": "inhibition at 10 µM", "setting": "C2.2 10 uM, Supp. Fig 5G, read-out: inhibition of acid-evoked current, single cells", "result": 8.99, "unit": "%"}, {"measurement": "inhibition of acid-evoked current, single cells", "setting": "C2.2 30 uM, Supp. Fig 5G", "result": "15.885 and 20.063 and 20.497 and 20.983 and 13.0981 and 19.6998"}, {"measurement": "inhibition at 30 µM", "setting": "C2.2 30 uM, Supp. Fig 5G, read-out: inhibition of acid-evoked current, single cells", "result": 23.3, "unit": "%"}, {"measurement": "inhibition at 100 µM", "setting": "C2.2 100 uM, Supp. Fig 5G, read-out: inhibition of acid-evoked current, single cells", "result": 63.2, "unit": "%"}, {"measurement": "inhibition at 300 µM", "setting": "C2.2 300 uM, Supp. Fig 5G, read-out: inhibition of acid-evoked current, single cells", "result": 78.2, "unit": "%"}, {"measurement": "HillSlope", "setting": "best-fit, Supp. Fig 5G", "result": 1.217}, {"measurement": "IC50", "setting": "best-fit, Top 100, Bottom 0, Supp. Fig 5G, read-out: AbsoluteIC50", "result": 82.9, "unit": "µM"}, {"measurement": "LogAbsoluteIC50", "setting": "best-fit, Supp. Fig 5G", "result": 1.918}, {"measurement": "IC50", "setting": "pH 5.5, read-out: IC50", "result": "82 µM and 82.9 µM"}]}, {"smiles": "O=C(/C(=N\\O)c1ccccc1)c1ccccc1", "note": "[C11, benzil monoxime]", "values": [{"measurement": "Hill coefficient", "result": 1.57}, {"measurement": "Shift of IC50 compared with WT", "result": "~ 2.5 fold"}, {"measurement": "inhibition of acid-evoked current, single cells", "setting": "C11 10 uM, Supp. Fig 5D", "result": "2.087 and 1.672"}, {"measurement": "inhibition at 10 µM", "setting": "C11 10 uM, Supp. Fig 5D, read-out: inhibition of acid-evoked current, single cells", "result": 1.63, "unit": "%"}, {"measurement": "inhibition of acid-evoked current, single cells", "setting": "C11 30 uM, Supp. Fig 5D", "result": "9.463 and 7.048 and 7.021"}, {"measurement": "inhibition at 30 µM", "setting": "C11 30 uM, Supp. Fig 5D, read-out: inhibition of acid-evoked current, single cells", "result": 7.27, "unit": "%"}, {"measurement": "inhibition of acid-evoked current, single cells", "setting": "C11 100 uM, Supp. Fig 5D", "result": "29.7468 and 24.8826 and 21.3974 and 29.1115"}, {"measurement": "inhibition at 100 µM", "setting": "C11 100 uM, Supp. Fig 5D, read-out: inhibition of acid-evoked current, single cells", "result": 29.4, "unit": "%"}, {"measurement": "inhibition of acid-evoked current, single cells", "setting": "C11 200 uM, Supp. Fig 5D", "result": 48.5849}, {"measurement": "inhibition at 200 µM", "setting": "C11 200 uM, Supp. Fig 5D, read-out: inhibition of acid-evoked current, single cells", "result": 42.1, "unit": "%"}, {"measurement": "inhibition of acid-evoked current, single cells", "setting": "C11 300 uM, Supp. Fig 5D", "result": "63.41 and 66.778 and 78.1609 and 62.1622 and 62.7854 and 80.0142 and 64.4878"}, {"measurement": "inhibition at 300 µM", "setting": "C11 300 uM, Supp. Fig 5D, read-out: inhibition of acid-evoked current, single cells", "result": 71.5, "unit": "%"}, {"measurement": "HillSlope", "setting": "best-fit, Supp. Fig 5D", "result": 1.566}, {"measurement": "IC50", "setting": "best-fit, Top 100, Bottom 0, Supp. Fig 5D, read-out: AbsoluteIC50", "result": 190, "unit": "µM"}, {"measurement": "LogAbsoluteIC50", "setting": "best-fit, Supp. Fig 5D", "result": 2.279}, {"measurement": "IC50", "setting": "pH 5.5, read-out: IC50", "result": 190, "unit": "µM"}]}]}
